# Patent publication US11267824B2, “Inhibitors of indoleamine 2,3-dioxygenase and/or tryptophan 2,3-dioxygenase” (IDORSIA PHARMACEUTICALS LTD, priority 2017, dated 2022)
# Experiments:
# [1] = molecular target: Recombinant human TDO comprising amino acids 19-407 (Homo sapiens (Human), UniProt P48775); assay: TDO2 enzymatic assay (TDO inhibitory activity); assay type: biochemical; details: 15 nM enzyme, 200 μM L-tryptophan, pH7, 30 min pre-incubation, NFK quantified by LCMS; mean values if measured multiple times; read-out: hTDO activity (IC50 in nM)
# Experimental: 2) Testing Compounds for TDO Inhibitory Activity in a TDO2 Enzymatic Assay:
# Recombinant human TDO comprising amino acids 19-407 with a N-terminal hexahistidine tag expressed in E. coli and purified to homogeneity is incubated at a final concentration of 15 nM in assay buffer consisting of 75 mM phosphate buffer at pH7 supplemented with 100 μM ascorbic acid, 50 U/ml Catalase, 0.01% BSA, and 0.01% Tween 20 (protocol modified from Seegers et al, JBS 2014). Example compounds are serially diluted in DMSO, further diluted in phosphate buffer, and added to the reaction mixture at final concentrations ranging from 10 μM to 0.5 nM. The final DMSO concentration is 0.6%. Following a pre-incubation of 30 minutes at RT, the reaction is started by the addition of L-tryptophan at a final concentration of 200 μM in assay buffer. After 30 minutes of incubation at RT, 3 μL of the reaction mixture are transferred to a 384 deep well plate containing 25 μL of deionized water. 100 μl of 200 nM L-Tryptophan-(indole-d5) in cold 100% methanol are added followed by a 10 minutes centrifugation at 4,000 rpm at 4° C. An additional 75 μL of deionized water are then added and followed by a 10 minutes centrifugation at 4,000 rpm at 4° C. The product of the reaction N′-Formylkynurenine (NFK) is quantified by LCMS and normalized to the L-Tryptophan-(indole-d5) signal. Samples with 0.6% DMSO (0% effect) and a TDO/IDO inhibitor (100% effect) are used as control samples to set the parameters for the non-linear regression necessary for the determination of the half-maximal inhibitory concentration (IC50) for each compound. For each compound concentration the percentage of activity compared to 0% and 100% effect is calculated as average±STDEV (each concentration measured in duplicate). IC50 values and curves are generated with XLfit software (IDBS) using Dose-Response One Site model 203 (four parameter logistic curve model). When compounds are measured multiple times, mean values are given.
# [2] = molecular target: Recombinant full-length human IDO1 (Homo sapiens (Human), UniProt P14902); assay: IDO1 enzymatic assay (IDO inhibitory activity); assay type: biochemical; details: 2 nM enzyme, 5 μM L-tryptophan, pH6.5, 30 min pre-incubation, NFK quantified by LCMS; mean values if measured multiple times; read-out: hIDO activity (IC50 in nM)
# Experimental: 1) Testing Compounds for IDO Inhibitory Activity in an IDO1 Enzymatic Assay:
# Recombinant full-length human IDO1 with a N-terminal hexahistidine tag expressed in E. coli and purified to homogeneity is incubated at a final concentration of 2 nM in assay buffer consisting of 37.5 mM phosphate buffer at pH6.5 supplemented with 10 mM sodium L-ascorbate, 0.45 μM methylene blue, 50 U/ml catalase, 0.01% BSA, and 0.01% Tween 20 (protocol modified from Seegers et al, JBS 2014). Example compounds are serially diluted in DMSO, further diluted in phosphate buffer, and added to the enzyme at final concentrations ranging from 10 μM to 0.5 nM. The final DMSO concentration is 0.6%. Following a pre-incubation of 30 minutes at RT, the reaction is started by the addition of L-tryptophan at a final concentration of 5 μM in assay buffer. After 30 minutes of incubation at RT, 3 μL of the reaction mixture are transferred to a 384 deep well plate containing 25 μL of deionized water. 100 μl of 200 nM L-Tryptophan-(indole-d5) in cold 100% methanol are added followed by a 10 minutes centrifugation at 4,000 rpm at 4° C. An additional 75 μL of deionized water are then added and followed by a 10 minutes centrifugation at 4,000 rpm at 4° C. The product of the reaction N′-Formylkynurenine (NFK) is quantified by LCMS and normalized to the L-Tryptophan-(indole-d5) signal. Samples with 0.6% DMSO (0% effect) and a TDO/IDO inhibitor (100% effect) are used as control samples to set the parameters for the non-linear regression necessary for the determination of the half-maximal inhibitory concentration (IC50) for each compound. For each compound concentration the percentage of activity compared to 0% and 100% effect is calculated as average ±STDEV (each concentration measured in duplicate). IC50 values and curves are generated with XLfit software (IDBS) using Dose-Response One Site model 203 (four parameter logistic curve model). When compounds are measured multiple times, mean values are given.
# Sequence of Recombinant full-length human IDO1 (P14902 whole entry): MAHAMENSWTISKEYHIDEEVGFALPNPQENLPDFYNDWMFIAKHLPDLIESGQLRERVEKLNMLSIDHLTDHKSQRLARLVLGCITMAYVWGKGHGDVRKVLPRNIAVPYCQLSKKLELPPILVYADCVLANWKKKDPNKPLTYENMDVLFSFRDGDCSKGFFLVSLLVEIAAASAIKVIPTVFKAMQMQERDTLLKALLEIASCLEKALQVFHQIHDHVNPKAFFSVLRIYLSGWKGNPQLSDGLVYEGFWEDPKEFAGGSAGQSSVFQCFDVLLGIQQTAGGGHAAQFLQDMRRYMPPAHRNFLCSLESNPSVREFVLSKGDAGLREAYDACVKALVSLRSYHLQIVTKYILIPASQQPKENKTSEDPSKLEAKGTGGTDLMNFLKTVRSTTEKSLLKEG
# Sequence of Recombinant human TDO comprising amino acids 19-407 (P48775 19-406 limits assumed): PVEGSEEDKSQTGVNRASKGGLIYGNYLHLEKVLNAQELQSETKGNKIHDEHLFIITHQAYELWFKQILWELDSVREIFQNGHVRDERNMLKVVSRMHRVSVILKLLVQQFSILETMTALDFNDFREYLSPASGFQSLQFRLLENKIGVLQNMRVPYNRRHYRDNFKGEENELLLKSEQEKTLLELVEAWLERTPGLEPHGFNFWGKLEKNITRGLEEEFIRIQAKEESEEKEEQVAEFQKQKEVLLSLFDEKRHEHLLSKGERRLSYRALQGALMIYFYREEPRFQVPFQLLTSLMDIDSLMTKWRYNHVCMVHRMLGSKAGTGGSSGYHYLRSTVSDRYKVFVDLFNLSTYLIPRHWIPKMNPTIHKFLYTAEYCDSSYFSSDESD
SMILES,IC50 [1],IC50 [2]
"OC(c1c(C2CC2)sc2cncn12)C1CCCCC1 (racemic) [Example 1, rac-Cyclohexyl(2-cyclopropylimidazo[5,1-b]thiazol-3-yl)methanol]",288 nM,15.1 nM
"Cc1sc2cncn2c1C(O)C1CCCCC1 (racemic) [Example 6, rac-Cyclohexyl-(2-methyl-imidazo[5,1-b]thiazol-3-yl)-methanol]",143 nM,134 nM
"OC(c1c(C2CCC2)sc2cncn12)C1CCCCC1 (racemic) [Example 7, rac-(2-Cyclobutylimidazo[5,1-b]thiazol-3-yl)(cyclohexyl)methanol]",324 nM,94.2 nM
"OC(CC1CCCCC1)c1c(C2CCC2)sc2cncn12 (racemic) [Example 8, rac-1-(2-Cyclobutylimidazo[5,1-b]thiazol-3-yl)-2-cyclohexylethan-1-ol]",256 nM,122 nM
"OC(c1c(C2CCCC2)sc2cncn12)C1CCCCC1 (racemic) [Example 9, rac-Cyclohexyl(2-cyclopentylimidazo[5,1-b]thiazol-3-yl)methanol]",193 nM,237 nM
"OC(CC1CCCCC1)c1c(C2CCCC2)sc2cncn12 (racemic) [Example 10, rac-2-Cyclohexyl-1-(2-cyclopentylimidazo[5,1-b]thiazol-3-yl)ethan-1-ol]",277 nM,384 nM
"CC(C)(C)c1sc2cncn2c1C(O)C1CCCCC1 (racemic) [Example 11, rac-(2-(tert-Butyl)imidazo[5,1-b]thiazol-3-yl)(cyclohexyl)methanol]",2050 nM,895 nM
"CC(C)(C)c1sc2cncn2c1C(O)CC1CCCCC1 (racemic) [Example 12, rac-1-(2-(tert-Butyl)imidazo[5,1-b]thiazol-3-yl)-2-cyclohexylethan-1-ol]",2130 nM,895 nM
"OC(c1c(Cl)sc2cncn12)C1CCCCC1 (racemic) [Example 13, rac-(2-Chloroimidazo[5,1-b]thiazol-3-yl)(cyclohexyl)methanol]",172 nM,110 nM
"OC(c1c(Br)sc2cncn12)C1CCCCC1 (racemic) [Example 14, rac-(2-Bromoimidazo[5,1-b]thiazol-3-yl)(cyclohexyl)methanol]",218 nM,28 nM
"OC(c1cccs1)c1c(Cl)sc2cncn12 (racemic) [Example 15, rac-(2-Chloro-imidazo[5,1-b]thiazol-3-yl)-thiophen-2-yl-methanol]",690 nM,333 nM
"OC(CC1CCCCC1)c1c(Cl)sc2cncn12 (racemic) [Example 16, rac-1-(2-Chloro-imidazo[5,1-b]thiazol-3-yl)-2-cyclohexyl-ethanol]",1210 nM,159 nM
"OC(c1c(Cl)sc2cncn12)C1CCCCCC1 (racemic) [Example 17, rac-(2-Chloro-imidazo[5,1-b]thiazol-3-yl)-cycloheptyl-methanol]",301 nM,170 nM
"OC(c1c(Cl)sc2cncn12)C1CC1 (racemic) [Example 19, rac-(2-Chloro-imidazo[5,1-b]thiazol-3-yl)-cyclopropyl-methanol]",2660 nM,1040 nM
"OC(CC1CC(F)(F)C1)c1c(C2CC2)sc2cncn12 (racemic) [Example 21, rac-1-(2-Cyclopropyl-imidazo[5,1-b]thiazol-3-yl)-2-(3,3-difluoro-cyclobutyl)-ethanol]",470 nM,113 nM
"OC(CC12CCC(CC1)C2)c1c(C2CC2)sc2cncn12 (racemic) [Example 22, rac-2-Bicyclo[2.2.1]hept-1-yl-1-(2-cyclopropyl-imidazo[5,1-b]thiazol-3-yl)-ethanol]",177 nM,33.7 nM
"CC1(CC(O)c2c(C3CC3)sc3cncn23)CCCCC1 (racemic) [Example 23, rac-1-(2-Cyclopropyl-imidazo[5,1-b]thiazol-3-yl)-2-(1-methyl-cyclohexyl)-ethanol]",204 nM,40.5 nM
"OC(CC1CCCC1)c1c(C2CC2)sc2cncn12 (racemic) [Example 24, rac-2-Cyclopentyl-1-(2-cyclopropyl-imidazo[5,1-b]thiazol-3-yl)-ethanol]",394 nM,25.6 nM
"CC1(C)CCC(CC(O)c2c(C3CC3)sc3cncn23)CC1 (racemic) [Example 25, rac-1-(2-Cyclopropyl-imidazo[5,1-b]thiazol-3-yl)-2-(4,4-dimethyl-cyclohexyl)-ethanol]",775 nM,75.2 nM
"CC1(C)CCC(C(O)c2c(C3CC3)sc3cncn23)CC1 (racemic) [Example 26, rac-(2-Cyclopropyl-imidazo[5,1-b]thiazol-3-yl)-(4,4-dimethyl-cyclohexyl)-methanol]",387 nM,25.2 nM

# Continued, values first:
IC50 [1],IC50 [2],SMILES
470 nM,24.3 nM,"OC(CC1CCCCCC1)c1c(C2CC2)sc2cncn12 (racemic) [Example 28, rac-2-Cycloheptyl-1-(2-cyclopropyl-imidazo[5,1-b]thiazol-3-yl)-ethanol]"
643 nM,63.4 nM,"OC(c1cccs1)c1c(Br)sc2cncn12 (racemic) [Example 32, rac-(2-Bromo-imidazo[5,1-b]thiazol-3-yl)-thiophen-2-yl-methanol]"
1410 nM,55.7 nM,"OC(CC1CCCCC1)c1c(Br)sc2cncn12 (racemic) [Example 33, rac-1-(2-Bromo-imidazo[5,1-b]thiazol-3-yl)-2-cyclohexyl-ethanol]"
269 nM,5.38 nM,"CC1(C)CC(C(O)c2c(C3CC3)sc3cncn23)C1 (racemic) [Example 36, rac-(2-Cyclopropyl-imidazo[5,1-b]thiazol-3-yl)-(3,3-dimethyl-cyclobutyl)-methanol]"
2460 nM,353 nM,"OC(CC1CCC(c2ccccc2)CC1)c1c(C2CC2)sc2cncn12 (racemic) [Example 37, rac-1-(2-Cyclopropyl-imidazo[5,1-b]thiazol-3-yl)-2-(4-phenyl-cyclohexyl)-ethanol]"
300 nM,41.7 nM,"CC1(CC(O)c2c(C3CC3)sc3cncn23)CCC1 (racemic) [Example 39, rac-1-(2-Cyclopropyl-imidazo[5,1-b]thiazol-3-yl)-2-(1-methyl-cyclobutyl)-ethanol]"
697 nM,44.9 nM,"OC(CC1CCC1)c1c(C2CC2)sc2cncn12 (racemic) [Example 40, rac-2-Cyclobutyl-1-(2-cyclopropyl-imidazo[5,1-b]thiazol-3-yl)-ethanol]"
520 nM,92.2 nM,"OC(CC1CCC(C(F)(F)F)CC1)c1c(C2CC2)sc2cncn12 (racemic) [Example 42, rac-1-(2-Cyclopropyl-imidazo[5,1-b]thiazol-3-yl)-2-(4-trifluoromethyl-cyclohexyl)-ethanol]"
420 nM,,"Cc1cscc1-c1sc2cncn2c1C(O)C1CCCCC1 (racemic) [Example 128, rac-Cyclohexyl-[2-(4-methyl-thiophen-3-yl)-imidazo[5,1-b]thiazol-3-yl]-methanol]"
